{"source": "patent US9127044B2", "about": "“Cyclic depsipeptides” (NOVARTIS AG, priority 2007, dated 2015)", "biological_target": "human kallikrein 7 (Homo sapiens, UniProt P49862)", "sequence (P49862 30-253)": "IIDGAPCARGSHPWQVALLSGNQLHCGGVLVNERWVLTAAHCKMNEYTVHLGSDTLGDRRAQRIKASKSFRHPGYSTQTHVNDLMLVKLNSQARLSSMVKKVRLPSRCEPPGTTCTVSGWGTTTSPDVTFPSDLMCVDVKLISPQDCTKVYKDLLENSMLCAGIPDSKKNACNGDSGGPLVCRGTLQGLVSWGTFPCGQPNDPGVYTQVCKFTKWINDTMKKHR", "assay": "Kallikrein-7 inhibitory activity in vitro (fluorescence-quenched substrate)", "type": "biochemical", "data": [{"compound": "CCC(C)[C@@H]1NC(=O)[C@H](Cc2ccc(O)cc2)N(C)C(=O)[C@H](C(C)CC)N2C(=O)C(CC[C@@H]2O)NC(=O)[C@H](CC(C)C)NC(=O)[C@@H](NC(=O)[C@H](CCC(N)=O)NC(=O)C(C)C)[C@@H](C)OC1=O", "note": "(some centres unmarked) [formula II]", "values": [{"measurement": "IC50", "setting": "hKallikrein7 IC50, Table 10", "value": 1, "unit": "nM"}, {"measurement": "IC50", "setting": "hKallikrein7 IC 50, Table 11", "value": 1, "unit": "nM"}]}]}
